Assay results published in article PMC11650737, “Developing MYC Degraders Bearing the Von Hippel–Lindau Ligand to Target the “Undruggable” MYC” (ACS Pharmacology & Translational Science, 2024).
Where “and” joins values, the source holds several entries; their conditions need not be identical. Equal entries are not always repeated.

Assays:
[1] = target: T1, recombinant bHLH-MYC protein (Homo sapiens, UniProt P01106); test: Direct binding to MYC by microscale thermophoresis (MST); details: compound 200 μM, labeled MYC 25 nM
T1 construct: The recombinant bHLHZ-Myc protein carrying an aminoterminal His6-tag; made in house; host or cells: bacteria
Procedure: To investigate the capacity of MYC degraders to directly bind to MYC, microscale thermophoresis (MST) experiments were performed using recombinant bHLH-MYC protein. MST is a very sensitive, recently developed method based on the shift of fluorescent molecules moving in a temperature gradient that can be perturbed by interactions with other molecules. In this binding assay, a His6-tagged bHLH-MYC protein was fluorescently labeled via its hexa-histidine tag and subjected to MST measurement in the absence and in the presence of MYC degraders. All compounds tested shifted MYC thermophoresis (Figure 4), as shown by normalized fluorescence values, a clear indication that they bound directly to MYC. MST experiments were also run under identical conditions using two reference Myc inhibitors as positive controls: the biphenyl pyrazole MYCi361 and a thiazolidinone derivative, 10058-F4. Both are well-characterized MYC binders: The first one has been used as a POI ligand for the PROTACs designed and synthesized in this work, and the latter is widely known to inhibit MYC by specifically disrupting the MYC–Max complex formation.
Figure 4 Assay of direct binding to MYC by microscale thermophoresis (MST): MST of fluorescently labeled MYC (25 nM) mixed with several MYC degraders (200 μM) or the solvent alone (DMSO). MST of MYC binders 10058-F4 and MYCi361 used as positive controls. Data are shown as mean ± SEM.
Microscale thermophoresis (MST) assay was used to determine whether PROTACs bind directly to MYC. The recombinant bHLHZ-Myc protein carrying an aminoterminal His6-tag was expressed in bacteria from a plasmid kindly provided by George Sianidis (BRFAA, Greece) and purified, as previously described,[33] with minor modifications. […] MST was measured using a Monolith NT.115Pico with a red filter at an ambient temperature of 25 °C. […] Results were analyzed using the software provided with the Monolith instrument. Data are reported as ΔFnorm, which results from subtracting the normalized fluorescence value (Fnorm) of MYC in the absence of PROTAC from Fnorm in excess of PROTAC (bound state).

[2] = Pharmacokinetic study in mice; type: in vivo, mice (male C57BL/6J); details: for adverse effects during the study / level in blood circulation 24 h after treatment / AUCs: i.p.; for adverse effects during the study: 10 mg/kg single dose; for level in blood circulation 24 h after treatment / AUCs / concentration at 8 h / Cmax / Tmax / half-life: 10 mg/kg; for AUCs / Cmax / Tmax: blood; for concentration at 8 h / Cmax / Tmax / half-life: male, C57BL/6J, mouse, whole blood; for concentration at 8 h: read-out: average blood concentration 8 h after administration; for half-life: noncompartmental analysis, read-out: T ½ (converted)
Procedure: In order to assess the efficacy potential of MYC degraders in animal models, pharmacokinetic studies were carried out in mice (Figure 6A,B). Following intraperitoneal (i.p.) administration of selected compounds, CSI86, CSI135, and CSI107 at 10 mg/kg, blood samples were collected at different time points until 24 h post-drug administration, and concentrations were determined via LC-MS/MS.
Animals that were used for the study were male C57BL/6J (n = 7) at the age of 6–8 weeks (average weight = 20–25 g). Each PROTAC was administered at 10 mg/kg, and the dosing volume per animal was 200 μL. The vehicle for CSI86, CSI107, and […], respectively, was corn oil/10% DMSO, and the administration was i.p. CSI86 was also administered PO at the same dose using 0.5% carboxymethyl cellulose (CMC) as a vehicle in water. Whole blood from two control mice was used for the preparation of standard solutions.
A serial tail bleeding protocol was performed for the collection of blood samples. Blood samples (10 μL) were collected at selected time points (15 min, 30 min, 1 h, 2 h, 4 h, 6 h, 8 h, and 24 h) in tubes containing 40 μL of sodium citrate (0.1 M, pH 4.5) and stored at −80 °C until the day of the analysis.
For the calculation of T1/2, a noncompartmental pharmacokinetics analysis was used via the online application “Dash App Gallery Pharmacokinetics Calculator.” […]
Characterization and Quantitative Analysis of PROTACs by Liquid Chromatography-Mass Spectrometry […]
For detection and quantification of the PROTACs in medium and biological samples, LC-MS/MS methodologies were developed. Mass spectrometry was performed on a Triple Quad 5500 + LC-MS/MS system fitted with a TurboIonSpray source and a hybrid triple quadrupole/linear ion trap mass spectrometer. HPLC was performed using an Exion LC AB Sciex system with a temperature-controlled column compartment and an autosampler. A C8 column (SunFire 2.1 x 50 mm, 3.5 μm) (Waters, MA, USA) was used at a flow rate of 0.3 mL/min for the separation of the analytes of interest. The mobile phase consisted of A: 10% ACN, 90% water, 2 mM ammonium acetate, and 0.1% FA and B: 90% ACN, 10% water, 2 mM ammonium acetate, and 0.1% FA, the injection volume was 10 μL. Elution of CSI86 PROTAC was achieved by a gradient of solvent A – solvent B described as follows: 100% A (0.0 - 0.5 min), 20% A (1.0 – […]
3.0 min), 100% A (3.1 – 5.1 min).
1040.5, for the CSI86 PROTAC with exact mass of 1039 (g/mol). Elution of CSI107 PROTAC was achieved by a gradient of solvent A – solvent B described as follows: 80% A (0.0 - 0.5 min), 15% A (1.5 – 3.5 min), […]
the CSI107 PROTAC with an exact mass of 1053 (g/mol).
Table S1: Optimized parameters for the LC-MS/MS analysis. […]
Detection protein degraders in mouse blood by LC-MS/MS analysis
For the LC-MS/MS analysis of the PK study, sample preparation was performed as follows.
Double Blank Blank + IS Standards
50 μL blood 50 μL blood 50 μL blood
10 μL ACN: H 2O 10 μL ACN: H 2O 10 μL std
300 μL of cold ACN were added in all samples for protein precipitation, followed by centrifugation at 13000 rpm for 10 min. The supernatant was transferred in glass tubes and evaporated at 55 °C for approximately 1 h. The samples were reconstituted in Mobile Phase A (90% H2O-10% ACN, 0.1% FA, 2 mM ammonium acetate) and the circulating amount of PROTAC was determined by LC-MS/MS analysis using a stable internal standard such as Warfarin or BETd-260 respectively. Gradient (20% A – 80% B) LC-MS/MS conditions were applied and the concentration range for the standard curve was 1 - 10.000 ng/mL. […]

T1 sequence (P01106 368-452 limits assumed): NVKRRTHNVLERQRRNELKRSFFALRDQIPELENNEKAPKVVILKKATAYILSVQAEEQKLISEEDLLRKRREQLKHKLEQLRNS

SMILES	direct binding to MYC (shift of MYC thermophoresis) [1]	adverse effects during the study [2]	level in blood circulation 24 h after treatment [2]	AUCs [2]	concentration at 8 h ([2]; ip)	Cmax ([2]; ip)	Tmax ([2]; ip) [h]	half-life ([2]; ip) [h]	Cmax ([2]; oral gavage (PO)) [ng/mL]
Cc1ncsc1-c1ccc(CNC(=O)[C@@H]2C[C@@H](O)CN2C(=O)[C@@H](NC(=O)CCC(=O)NCCCOc2ccc(-c3cc(C(F)(F)F)nn3C)c(O)c2-c2cc(C(F)(F)F)cc(C(F)(F)F)c2)C(C)(C)C)cc1 [CSI86]	equally potent	no adverse effects were reported	evident levels of the degrader being present in blood circulation	8,4 h x μg/mL	~500 ng/mL and ~480 nM	713 ng/mL and 686 nM	2	7.4	< 100
Cc1ncsc1-c1ccc(CNC(=O)[C@@H]2C[C@@H](O)CN2C(=O)[C@@H](NC(=O)CCCC(=O)NCCCOc2ccc(-c3cc(C(F)(F)F)nn3C)c(O)c2-c2cc(C(F)(F)F)cc(C(F)(F)F)c2)C(C)(C)C)cc1 [CSI107]	equally potent	no adverse effects were reported	evident levels of the degrader being present in blood circulation	3,4 h x μg/mL	~150 ng/mL and ~140 nM	413 ng/mL and 392 nM	2	5 ± 0.5	
Cc1ncsc1-c1ccc(CNC(=O)[C@@H]2C[C@@H](O)CN2C(=O)[C@@H](NC(=O)COCCOCC(=O)NCCCOc2ccc(-c3cc(C(F)(F)F)nn3C)c(O)c2-c2cc(C(F)(F)F)cc(C(F)(F)F)c2)C(C)(C)C)cc1 [CSI135]	equally potent	no adverse effects were reported	evident levels of the degrader being present in blood circulation	6 h x μg/mL		699 ng/mL and 636 nM	2	7.6	
